Values of other authors, collected in publication PMC10268011 (ACS Omega, 2023).

systemic bioavailability: high systemic bioavailability
SMILES: COc1ccc(COc2ccc(Cc3cnc(N)nc3N)cc2OC)cc1 [GW2580, 5-(3-Methoxy-4-((4-Methoxybenzyl)Oxy)Benzyl)Pyrimidine-2,4-Diamine]
